In ChEMBL document CHEMBL3611993, “Design, synthesis and biological activities of novel oxazolo[4,5-g]quinazolin-2(1H)-one derivatives as EGFR inhibitors” (Eur J Med Chem, 2015):
Activity calls are given as the source filed them. The rule behind the calls is not given here.

Molecular target: Epidermal growth factor receptor (Homo sapiens, UniProt P00533)
Assay: Inhibition of EGFR (unknown origin) assessed as incorporation of 33Pi after 1 hr by ELISA
Conditions: not given

Sequence of Epidermal growth factor receptor (P00533 whole entry): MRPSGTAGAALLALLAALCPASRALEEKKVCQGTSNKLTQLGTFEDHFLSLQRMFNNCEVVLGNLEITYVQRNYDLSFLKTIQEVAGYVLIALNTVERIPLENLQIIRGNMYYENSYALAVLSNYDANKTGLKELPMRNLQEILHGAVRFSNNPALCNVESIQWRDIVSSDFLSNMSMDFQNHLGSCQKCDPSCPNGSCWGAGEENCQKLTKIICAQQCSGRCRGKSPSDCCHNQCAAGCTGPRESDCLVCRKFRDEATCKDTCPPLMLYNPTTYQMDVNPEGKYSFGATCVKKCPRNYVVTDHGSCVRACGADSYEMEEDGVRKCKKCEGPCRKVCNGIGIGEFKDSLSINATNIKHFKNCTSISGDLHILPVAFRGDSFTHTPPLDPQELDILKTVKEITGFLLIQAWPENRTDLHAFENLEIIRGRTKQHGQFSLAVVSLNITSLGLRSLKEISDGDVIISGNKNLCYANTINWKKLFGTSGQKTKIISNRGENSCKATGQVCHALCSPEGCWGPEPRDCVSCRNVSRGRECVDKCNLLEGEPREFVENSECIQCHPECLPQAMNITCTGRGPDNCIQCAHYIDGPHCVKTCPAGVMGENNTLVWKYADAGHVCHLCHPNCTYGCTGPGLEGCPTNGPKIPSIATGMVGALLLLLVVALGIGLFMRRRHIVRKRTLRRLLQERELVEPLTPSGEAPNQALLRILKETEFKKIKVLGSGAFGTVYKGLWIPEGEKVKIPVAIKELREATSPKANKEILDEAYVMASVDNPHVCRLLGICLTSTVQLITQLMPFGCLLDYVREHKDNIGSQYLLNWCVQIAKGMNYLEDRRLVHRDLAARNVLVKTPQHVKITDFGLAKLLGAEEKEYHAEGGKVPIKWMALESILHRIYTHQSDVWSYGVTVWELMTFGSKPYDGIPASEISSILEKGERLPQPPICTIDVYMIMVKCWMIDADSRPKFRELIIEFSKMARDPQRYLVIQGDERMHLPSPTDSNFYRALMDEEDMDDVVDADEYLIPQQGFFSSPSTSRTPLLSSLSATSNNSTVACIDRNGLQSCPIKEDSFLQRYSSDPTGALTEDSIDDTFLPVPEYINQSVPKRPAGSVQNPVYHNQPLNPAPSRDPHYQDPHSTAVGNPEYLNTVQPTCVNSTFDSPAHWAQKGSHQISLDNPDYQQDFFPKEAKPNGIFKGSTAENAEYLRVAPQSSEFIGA

Row | IC50 [µM] | SMILES
1 | 0.19 | C#Cc1cccc(Nc2ncnc3cc4oc(=O)n(CCOC)c4cc23)c1
2 | 5.1 | COCCn1c(=O)oc2cc3ncnc(Nc4ccc(OC)cc4)c3cc21
3 | > 10 | COCCn1c(=O)oc2cc3ncnc(Nc4cccc(OC(C)C)c4)c3cc21
4 | 0.14 | CCOC(=O)CCCn1c(=O)oc2cc3ncnc(Nc4ccc(F)c(F)c4)c3cc21
5 | 0.026 | COCCn1c(=O)oc2cc3ncnc(Nc4ccc(F)c(F)c4)c3cc21
6 | 0.13 | CCOC(=O)CCCn1c(=O)oc2cc3ncnc(Nc4ccc5[nH]ncc5c4)c3cc21
7 | > 10 | CCOC(=O)CCCn1c(=O)oc2cc3ncnc(Nc4ccc(OCc5ccccc5)c(Cl)c4)c3cc21
8 | > 10 | CCOC(=O)CCCn1c(=O)oc2cc3ncnc(Nc4ccccc4)c3cc21
9 | 0.44 | CCOC(=O)c1ccc(O)c(Nc2ncnc3cc4oc(=O)n(CCOC)c4cc23)c1
10 | > 10 | CCOC(=O)CCCn1c(=O)oc2cc3ncnc(N[C@@H](C)c4ccccc4)c3cc21
11 | > 10 | CCOC(=O)CCCn1c(=O)oc2cc3ncnc(N[C@H](C)c4ccccc4)c3cc21
12 | 7.8 | CCOC(=O)CCCn1c(=O)oc2cc3ncnc(Nc4ccc(F)c(Cl)c4)c3cc21
13 | 5.7 | C#Cc1cccc(Nc2ncnc3cc4oc(=O)n(CCCC(=O)OCC)c4cc23)c1
14 | > 10 | COCCn1c(=O)oc2cc3ncnc(Nc4ccc(C(C)(C)C)cc4)c3cc21
15 | 1.3 | COCCn1c(=O)oc2cc3ncnc(Nc4ccc(OCc5ccc(Cl)cc5)c(Cl)c4)c3cc21
16 | > 10 | COCCn1c(=O)oc2cc3ncnc(Nc4ccc(S(N)(=O)=O)cc4)c3cc21
17 | 0.47 | COCCn1c(=O)oc2cc3ncnc(Nc4ccc(F)c(Cl)c4)c3cc21

The remaining lines, values behind:

Row | SMILES | IC50 [µM]
18 | CCOC(=O)CCCn1c(=O)oc2cc3ncnc(Nc4ccc(S(N)(=O)=O)cc4)c3cc21 | > 10
19 | CCOC(=O)CCCn1c(=O)oc2cc3ncnc(Nc4ccc(O)cc4)c3cc21 | 0.02
20 | COCCn1c(=O)oc2cc3ncnc(Nc4ccc(OC)c(OC)c4)c3cc21 | 5.5
21 | CCOC(=O)CCCn1c(=O)oc2cc3ncnc(Nc4cc(C)cc(C)c4)c3cc21 | 1.5
22 | CCOC(=O)CCCn1c(=O)oc2cc3ncnc(Nc4ccc(C(=O)OCc5ccc(C#N)cc5)cc4)c3cc21 | > 10
23 | COCCn1c(=O)oc2cc3ncnc(Nc4ccc(Cl)cc4)c3cc21 | > 10
24 | CCOC(=O)CCCn1c(=O)oc2cc3ncnc(Nc4ccc(OC(C)C)cc4)c3cc21 | 0.16
25 | CCOC(=O)CCCn1c(=O)oc2cc3ncnc(Nc4ccc(OCC)cc4)c3cc21 | > 10
26 | CCOC(=O)CCCn1c(=O)oc2cc3ncnc(Nc4cc(C(=O)OCC)ccc4O)c3cc21 | 0.0073
27 | CCOC(=O)CCCn1c(=O)oc2cc3ncnc(Nc4ccc(OCc5ccc(OC)cc5)c(Cl)c4)c3cc21 | > 10
28 | CCOC(=O)CCCn1c(=O)oc2cc3ncnc(Nc4ccc(OCc5ccc(Cl)cc5)c(Cl)c4)c3cc21 | 0.053
29 | CCOC(=O)CCCn1c(=O)oc2cc3ncnc(Nc4ccc(OCc5nccc(OCC(F)(F)F)c5C)cc4)c3cc21 | 0.78
30 | CCOC(=O)CCCn1c(=O)oc2cc3ncnc(Nc4ccc(C(C)(C)C)cc4)c3cc21 | > 10
31 | CCOC(=O)CCCn1c(=O)oc2cc3ncnc(Nc4ccc(Cl)cc4)c3cc21 | 1.2
32 | CCOC(=O)CCCn1c(=O)oc2cc3ncnc(Nc4ccc(OC)c(OC)c4)c3cc21 | > 10
33 | COCCn1c(=O)oc2cc3ncnc(Nc4ccc(OCc5nccc(OCC(F)(F)F)c5C)cc4)c3cc21 | 0.34
34 | CCOC(=O)CCCn1c(=O)oc2cc3ncnc(Nc4cccc(O)c4)c3cc21 | 0.0087
35 | CCOC(=O)CCCn1c(=O)oc2cc3ncnc(NCc4ccccc4)c3cc21 | > 10
36 | CCOC(=O)CCCn1c(=O)oc2cc3ncnc(Nc4ccc(C)cc4)c3cc21 | > 10
37 | COCCn1c(=O)oc2cc3ncnc(Nc4cccc(C(C)=O)c4)c3cc21 | 0.56

Tested on: KB
Assay: Antiproliferative activity against human KB cells expressing EGFR and Src after 48 hrs by SRB assay
Format: functional, cell-based
Conditions: not given

Row | IC50 [µM] | SMILES
38 | 11.7 | COCCn1c(=O)oc2cc3ncnc(Nc4ccc(OC)cc4)c3cc21
39 | 17.9 | CCOC(=O)CCCn1c(=O)oc2cc3ncnc(Nc4ccc(F)c(F)c4)c3cc21
40 | 1.1 | COCCn1c(=O)oc2cc3ncnc(Nc4ccc(F)c(F)c4)c3cc21
41 | 38.4 | CCOC(=O)CCCn1c(=O)oc2cc3ncnc(Nc4ccc5[nH]ncc5c4)c3cc21
42 | 6.3 | CCOC(=O)c1ccc(O)c(Nc2ncnc3cc4oc(=O)n(CCOC)c4cc23)c1
43 | 6.1 | COCCn1c(=O)oc2cc3ncnc(Nc4ccc(OCc5ccc(Cl)cc5)c(Cl)c4)c3cc21

Further lines, the compound ahead of its results:

Row | SMILES | IC50 [µM]
44 | CCOC(=O)CCCn1c(=O)oc2cc3ncnc(Nc4ccc(C(=O)OCc5ccc(Cl)cc5)cc4)c3cc21 | 5.5
45 | CCOC(=O)CCCn1c(=O)oc2cc3ncnc(Nc4ccc(S(N)(=O)=O)cc4)c3cc21 | 18.7
46 | CCOC(=O)CCCn1c(=O)oc2cc3ncnc(Nc4ccc(O)cc4)c3cc21 | 11.1
47 | CCOC(=O)CCCn1c(=O)oc2cc3ncnc(Nc4ccc(OC(C)C)cc4)c3cc21 | 18.6
48 | CCOC(=O)CCCn1c(=O)oc2cc3ncnc(Nc4cc(C(=O)OCC)ccc4O)c3cc21 | 19.5
49 | CCOC(=O)CCCn1c(=O)oc2cc3ncnc(Nc4cccc(O)c4)c3cc21 | 3.7
50 | CCOC(=O)CCCn1c(=O)oc2cc3ncnc(Nc4ccc(OCc5ccccn5)cc4)c3cc21 | 16.6

Tested on: A498
Assay: Antiproliferative activity against human A498 cells expressing EGFR and Src after 48 hrs by SRB assay
Format: functional, cell-based
Conditions: A498, 48 h

Row | SMILES | IC50 [µM]
51 | CCOC(=O)CCCn1c(=O)oc2cc3ncnc(Nc4ccc(C(=O)OCc5ccc(Cl)cc5)cc4)c3cc21 | 8.7
52 | COCCn1c(=O)oc2cc3ncnc(Nc4ccc(OC)cc4)c3cc21 | 33.5
53 | CCOC(=O)CCCn1c(=O)oc2cc3ncnc(Nc4ccc(S(N)(=O)=O)cc4)c3cc21 | 8
54 | CCOC(=O)CCCn1c(=O)oc2cc3ncnc(Nc4ccc(O)cc4)c3cc21 | 15.2
55 | CCOC(=O)CCCn1c(=O)oc2cc3ncnc(Nc4ccc(F)c(F)c4)c3cc21 | 36.4
56 | COCCn1c(=O)oc2cc3ncnc(Nc4ccc(F)c(F)c4)c3cc21 | 17.6
57 | CCOC(=O)CCCn1c(=O)oc2cc3ncnc(Nc4ccc5[nH]ncc5c4)c3cc21 | 26.8
58 | CCOC(=O)CCCn1c(=O)oc2cc3ncnc(Nc4ccc(OC(C)C)cc4)c3cc21 | 41.1
59 | CCOC(=O)c1ccc(O)c(Nc2ncnc3cc4oc(=O)n(CCOC)c4cc23)c1 | 17.1
60 | CCOC(=O)CCCn1c(=O)oc2cc3ncnc(Nc4cc(C(=O)OCC)ccc4O)c3cc21 | 61.6
61 | COCCn1c(=O)oc2cc3ncnc(Nc4ccc(OCc5ccc(Cl)cc5)c(Cl)c4)c3cc21 | 6.2
62 | CCOC(=O)CCCn1c(=O)oc2cc3ncnc(Nc4cccc(O)c4)c3cc21 | 7.6
63 | CCOC(=O)CCCn1c(=O)oc2cc3ncnc(Nc4ccc(OCc5ccccn5)cc4)c3cc21 | 47

Tested on: Mus musculus
Assay: Toxicity in mouse LLC cells allografted SCID mouse assessed as mortality at 100 mg/kg, po qd for 14 days
Format: organism-based
Conditions: in vivo, 336 h

Row | SMILES | Activity
64 | C#Cc1cccc(Nc2ncnc3cc(OCCOC)c(OCCOC)cc23)c1 [ERLOTINIB] | Non-toxic
65 | CCOC(=O)CCCn1c(=O)oc2cc3ncnc(Nc4cccc(O)c4)c3cc21 | Non-toxic

Tested on: Lewis lung carcinoma cell line
Assay: Antitumor activity against mouse LLC cells allografted in SCID mouse assessed as inhibition of tumor growth at 100 mg/kg, po qd for 14 days
Format: functional, organism-based
Conditions: not given

Row | SMILES | growth inhibition (GI)
66 | C#Cc1cccc(Nc2ncnc3cc(OCCOC)c(OCCOC)cc23)c1 [ERLOTINIB] | Active
67 | CCOC(=O)CCCn1c(=O)oc2cc3ncnc(Nc4cccc(O)c4)c3cc21 | Active

Tested on: Lewis lung carcinoma cell line
Assay: Antitumor activity against mouse LLC cells allografted in SCID mouse assessed as extension of survival period at 100 mg/kg, po qd for 14 days
Format: functional, organism-based
Conditions: not given

Row | SMILES | Activity
68 | CCOC(=O)CCCn1c(=O)oc2cc3ncnc(Nc4cccc(O)c4)c3cc21 | inactive

Tested on: Mus musculus
Assay: Toxicity in mouse LLC cells allografted SCID mouse assessed as change in body weight at 100 mg/kg, po qd for 14 days
Format: organism-based
Conditions: in vivo, 336 h

Row | SMILES | Activity
69 | CCOC(=O)CCCn1c(=O)oc2cc3ncnc(Nc4cccc(O)c4)c3cc21 | Toxic
